Test results as given in patent US4431665A, “Acylated laidlomycin derivatives” (priority 1980, dated 1984).

Key:
[1] = system: rumen contents (lactic acid accumulation); experiment: Inhibition of lactic acid accumulation, second batch culture fermentation of rumen contents with glucose; type: cell-based, bovine (rumen fistulated); conditions: Table 6, 6 h, 39° C., 0 μg/ml: 36.65
Description: Inhibition of lactic acid accumulation is determined using a second batch culture fermentation system. Rumen contents from a rumen fistulated bovine are mixed with an equal amount of buffer which contains a 150 mM concentration of glucose. Following 6 hours of incubation at 39° C., lactic acid produced in the fermentation is analyzed by a specific enzymatic assay. The concentration of lactic acid in the fermentation broth is quantified by the increase in absorbance of light at […] when nicotinamide adenine dinucleotide is reduced by lactic acid with the aid of lactate dehydrogenase. […]
(§1) The procedure of Example 2 was followed to compare laidlomycin (L.), sodium L. (Na L.), L.-propionate (L.C3), L. butyrate (L.C4), L. isobutyrate (L. isoC4), L. pentanoate (L.C5) and L. hexanoate (L.C6).
(§2) The procedure of Example 2 was followed to compare the activities of L. heptanoate (L. C7), L. octanoate (L. C8), L. decanoate (L. C10) and L. dodecanoate (L. C12) in increasing propionic acid production and inhibiting lactic acid production.
(§3) The procedure of Example 2 was followed to compare the activities of laidlomycin (L.) acetate (L. C2), L. pentanoate (L. C5), L. stearate (L. C18), L. cyclobutylcarboxylate, L. cyclopentylcarboxylate, L. cyclohexylcarboxylate and L. cyclopropylcarboxylate.

[2] = system: rumen microorganisms (mixed microbial population of rumen contents); experiment: Enhancement of intraruminal propionic acid production, batch culture fermentation of rumen contents; type: cell-based, bovine (rumen-fistulated); conditions: Table 5, 9 h, 39° C., 0 μg/ml: 35.5
Description: Enhancement of intraruminal propionic acid production is determined using a batch culture fermentation system. Rumen contents from a rumen-fistulated bovine are mixed with an equal amount of buffer which contains mineral, energy and nitrogen sources required for continued growth and metabolism of the mixed microbial population. Aliquots of this inoculum then are transferred to incubation vessels containing appropriate amounts of sodium laidlomycin (Na L.) (see Example 1A), and L. butyrate (L.C4) (prepared according to the procedure of Example 1A). After 9 hours of incubation at 39° C., concentrations of individual volatile fatty acids in each incubation vessel are determined by gas-liquid chromatography. The net production of each individual volatile fatty acid (acetic [AA], propionic [PA] and butyric [BA]) is calculated as the difference between the concentration after incubation and the concentration before incubation. The molar percentage of propionic acid produced is calculated from the following equation: [formula]
The comparative activities of sodium laidlomycin (Na L.) and the laidlomycin butyrate upon propionic acid and lactic acid production are set forth in Tables 1 and 2 where the concentration is in micrograms per ml (μg/ml).
as §1, §2, §3

For `CCCCCCCC(=O)OCC1(O)OC(C2CC(C)C(C3(C)CCC(C4(C)CCC5(CC(O)C(C)C(C(C)C(OC(=O)CC)C(C)C(=O)O)O5)O4)O3)O2)C(C)CC1C` (centres unmarked) [L. C8, laidlomycin octanoate], the “Lactic Acid Accumulation” value ([1]; 1.25 μg/ml) was 1.21 µmol/mL, the “Lactic Acid Accumulation” value ([1]; 2.5 μg/ml) was 1.31 µmol/mL and the “Lactic Acid Accumulation” value ([1]; 5 μg/ml) was 1.27 µmol/mL. The “Lactic Acid Accumulation” value ([1]; 10 μg/ml) was 1.39 µmol/mL, the “Lactic Acid Accumulation” value ([1]; 20 μg/ml) was 2.14 µmol/mL and the “Lactic Acid Accumulation” value ([1]; .31 μg/ml) was 41.96 µmol/mL. The “Lactic Acid Accumulation” value ([1]; .63 μg/ml) was 9.41 µmol/mL, the “% Propionic Acid” value ([2]; 1.25 μg/ml) was 46.4% and the “% Propionic Acid” value ([2]; 2.5 μg/ml) was 47.3%. For the same molecule, the “% Propionic Acid” value ([2]; 5 μg/ml) was 48.2%, the “% Propionic Acid” value ([2]; 10 μg/ml) was 47.5% and the “% Propionic Acid” value ([2]; 20 μg/ml) was 49.4%. For the same molecule, the “% Propionic Acid” value ([2]; .31 μg/ml) was 42.7% and the “% Propionic Acid” value ([2]; .63 μg/ml) was 43.9%.
